Molecular target: MPS1 (Homo sapiens, UniProt P33981)
Test: biochemical
Experimental: Amplification was performed using the forward oligonucleotide:
The inhibitory activity of putative kinase inhibitors and the potency of selected compounds were determined using a trans-phosphorylation assay.
Three cycles of mixing are done immediately after the addition of the resin.

MPS1, sequence (P33981 2-857): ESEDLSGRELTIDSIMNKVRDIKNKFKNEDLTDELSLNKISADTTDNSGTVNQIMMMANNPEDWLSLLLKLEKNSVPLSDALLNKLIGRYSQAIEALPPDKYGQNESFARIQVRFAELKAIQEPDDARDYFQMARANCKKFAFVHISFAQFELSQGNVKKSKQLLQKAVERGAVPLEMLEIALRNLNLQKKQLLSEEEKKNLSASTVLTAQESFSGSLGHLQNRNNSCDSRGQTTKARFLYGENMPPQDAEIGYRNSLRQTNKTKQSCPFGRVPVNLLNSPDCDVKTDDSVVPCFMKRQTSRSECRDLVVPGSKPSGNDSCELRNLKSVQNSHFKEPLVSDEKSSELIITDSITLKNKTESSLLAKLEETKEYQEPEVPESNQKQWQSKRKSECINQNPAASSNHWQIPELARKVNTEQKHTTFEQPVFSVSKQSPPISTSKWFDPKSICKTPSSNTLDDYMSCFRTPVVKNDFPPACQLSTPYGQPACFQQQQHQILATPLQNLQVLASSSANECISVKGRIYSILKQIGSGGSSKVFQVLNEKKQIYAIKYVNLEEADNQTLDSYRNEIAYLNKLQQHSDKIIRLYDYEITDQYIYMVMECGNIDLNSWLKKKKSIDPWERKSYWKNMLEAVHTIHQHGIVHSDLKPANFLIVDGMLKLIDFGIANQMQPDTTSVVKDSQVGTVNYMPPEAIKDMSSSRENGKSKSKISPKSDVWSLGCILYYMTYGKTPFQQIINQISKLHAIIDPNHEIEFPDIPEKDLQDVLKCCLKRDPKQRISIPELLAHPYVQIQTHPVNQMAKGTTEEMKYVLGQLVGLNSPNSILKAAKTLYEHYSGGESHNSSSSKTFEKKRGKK

Structure (SMILES)	IC50 [nM]
CCc1cccc(CC)c1NC(=O)c1cc(-c2nc(Nc3ccc(C(=O)N4CCC(N(C)C)CC4)cc3C)ncc2C)n(C)c1 [Compound 31, 5-{2-[4-(4-Dimethylamino-piperidine-1-carbonyl)-2-methyl-phenylamino]-5-methyl-pyrimidin-4-yl}-1-methyl-1H-pyrrole-3-carboxylic acid (2,6-diethyl-phenyl)-amide]	67
CCc1cccc(CC)c1NC(=O)c1cc(-c2nc(Nc3ccc(C(N)=O)cc3C)ncc2Cl)n(C)c1Cl [Compound 21, 5-[2-(4-Carbamoyl-2-methyl-phenylamino)-5-chloro-pyrimidin-4-yl]-2-chloro-1-methyl-1H-pyrrole-3-carboxylic acid (2,6-diethyl-phenyl)-amide]	22
COc1cc(N2CCN(C)CC2)ccc1Nc1nccc(-c2cc(C(=O)Nc3c(C)cccc3Cl)cn2C)n1 [Compound 37, 5-{2-[2-Methoxy-4-(4-methyl-piperazin-1-yl)-phenylamino]-pyrimidin-4-yl}-1-methyl-1H-pyrrole-3-carboxylic acid (2-chloro-6-methyl-phenyl)-amide]	84
CCc1cccc(CC)c1NC(=O)c1cc(-c2ccnc(Nc3ccc(N(C)CCCN(C)C)cc3OC)n2)n(C)c1 [Compound 32, 5-(2-{4-[(3-Dimethylamino-propyl)-methyl-amino]-2-methoxy-phenylamino}-pyrimidin-4-yl)-1-methyl-1H-pyrrole-3-carboxylic acid (2,6-diethyl-phenyl)-amide]	110
CCc1cccc(CC)c1NC(=O)c1cc(-c2ccnc(Nc3ccc(C(=O)N(C)C)cc3C)n2)n(C)c1 [Compound 14, 5-[2-(4-Dimethylcarbamoyl-2-methyl-phenylamino)-pyrimidin-4-yl]-1-methyl-1H-pyrrole-3-carboxylic acid (2,6-diethyl-phenyl)-amide]	41

— US8772280B2, “N-aryl-2-(2-arylaminopyrimidin-4-yl)pyrrol-4-carboxamide derivatives as MPS1 kinase inhibitors” (Nerviano Medical Sciences S.R.L., priority 2009, dated 2014)
